Reference: US9340590B2 (priority 2011, dated 2016)
Like-named read-outs stand apart in the source and are kept apart here. Positions of bridges follow the written chain, without caps; N, C: chain ends. Residues, ends and D or L forms follow the SMILES beside them.

Tests used:
Assay in all cases: cell-based
[1] = target: hNav1.7 (Homo sapiens, UniProt Q15858); assay type: cell-based
[2] = target: hNav1.5 (Homo sapiens, UniProt Q14524)
[3] = target: hNav1.3 (Homo sapiens, UniProt Q9NY46); conditions: IonWorks Quattro, use-dependent protocol, hNav1.3; read-out: IWQ Use Nav1.3
[4] = IonWorks Quattro, use-dependent protocol, hNav1.7, read-out: IWQ Use Nav1.7
[5] = IonWorks Quattro, use-dependent protocol, hNav1.5, read-out: IWQ Use Nav1.5

hNav1.7, sequence (Q15858 whole entry, looked up): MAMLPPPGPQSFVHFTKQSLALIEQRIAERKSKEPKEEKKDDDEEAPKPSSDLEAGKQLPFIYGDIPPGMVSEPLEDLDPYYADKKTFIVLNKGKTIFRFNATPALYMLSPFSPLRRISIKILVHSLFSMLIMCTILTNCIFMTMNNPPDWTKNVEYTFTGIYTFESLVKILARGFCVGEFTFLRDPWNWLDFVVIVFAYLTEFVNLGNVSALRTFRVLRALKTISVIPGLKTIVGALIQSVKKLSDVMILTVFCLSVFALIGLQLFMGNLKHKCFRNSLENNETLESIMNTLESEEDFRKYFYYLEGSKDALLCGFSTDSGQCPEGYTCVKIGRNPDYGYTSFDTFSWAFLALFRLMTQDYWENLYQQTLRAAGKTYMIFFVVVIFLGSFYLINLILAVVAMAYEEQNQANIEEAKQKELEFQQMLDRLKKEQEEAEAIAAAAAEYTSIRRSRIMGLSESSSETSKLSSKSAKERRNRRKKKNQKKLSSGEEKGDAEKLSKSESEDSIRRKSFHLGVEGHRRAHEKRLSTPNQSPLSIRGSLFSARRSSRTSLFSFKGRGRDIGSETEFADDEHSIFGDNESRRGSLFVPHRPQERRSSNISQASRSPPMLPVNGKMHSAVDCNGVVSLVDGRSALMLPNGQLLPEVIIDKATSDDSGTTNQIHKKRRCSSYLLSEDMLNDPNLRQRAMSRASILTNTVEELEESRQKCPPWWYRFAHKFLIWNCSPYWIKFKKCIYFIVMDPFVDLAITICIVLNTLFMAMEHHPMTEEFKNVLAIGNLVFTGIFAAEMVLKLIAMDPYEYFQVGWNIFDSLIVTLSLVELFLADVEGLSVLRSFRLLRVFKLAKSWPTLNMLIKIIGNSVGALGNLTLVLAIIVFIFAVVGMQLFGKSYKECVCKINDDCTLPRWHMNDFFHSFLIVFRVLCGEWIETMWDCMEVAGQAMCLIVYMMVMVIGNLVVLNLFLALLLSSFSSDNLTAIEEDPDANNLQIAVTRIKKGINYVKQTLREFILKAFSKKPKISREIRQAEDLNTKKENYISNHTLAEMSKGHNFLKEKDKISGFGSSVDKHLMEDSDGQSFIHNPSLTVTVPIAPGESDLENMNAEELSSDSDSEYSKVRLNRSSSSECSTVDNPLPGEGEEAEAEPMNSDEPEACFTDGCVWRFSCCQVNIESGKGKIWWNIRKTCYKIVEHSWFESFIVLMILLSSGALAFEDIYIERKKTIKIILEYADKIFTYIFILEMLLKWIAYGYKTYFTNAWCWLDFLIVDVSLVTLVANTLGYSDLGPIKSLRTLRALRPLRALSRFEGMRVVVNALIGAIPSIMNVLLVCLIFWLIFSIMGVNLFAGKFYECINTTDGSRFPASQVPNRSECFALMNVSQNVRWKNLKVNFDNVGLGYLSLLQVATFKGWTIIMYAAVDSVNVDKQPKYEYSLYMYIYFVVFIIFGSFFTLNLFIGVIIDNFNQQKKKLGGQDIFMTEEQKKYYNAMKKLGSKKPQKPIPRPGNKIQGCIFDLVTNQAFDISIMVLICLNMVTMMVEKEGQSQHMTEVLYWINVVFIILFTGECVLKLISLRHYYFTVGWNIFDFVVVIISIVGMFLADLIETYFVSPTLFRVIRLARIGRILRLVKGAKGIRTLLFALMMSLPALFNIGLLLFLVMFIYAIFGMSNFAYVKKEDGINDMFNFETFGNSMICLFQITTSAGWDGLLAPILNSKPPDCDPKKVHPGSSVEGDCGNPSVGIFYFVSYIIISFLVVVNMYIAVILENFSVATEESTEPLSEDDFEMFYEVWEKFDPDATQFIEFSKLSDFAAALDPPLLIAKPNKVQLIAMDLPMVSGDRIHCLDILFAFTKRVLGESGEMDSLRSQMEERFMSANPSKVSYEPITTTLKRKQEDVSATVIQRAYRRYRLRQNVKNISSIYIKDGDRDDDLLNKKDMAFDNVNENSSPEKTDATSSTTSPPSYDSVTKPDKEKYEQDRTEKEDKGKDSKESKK
hNav1.5, sequence (Q14524 whole entry, looked up): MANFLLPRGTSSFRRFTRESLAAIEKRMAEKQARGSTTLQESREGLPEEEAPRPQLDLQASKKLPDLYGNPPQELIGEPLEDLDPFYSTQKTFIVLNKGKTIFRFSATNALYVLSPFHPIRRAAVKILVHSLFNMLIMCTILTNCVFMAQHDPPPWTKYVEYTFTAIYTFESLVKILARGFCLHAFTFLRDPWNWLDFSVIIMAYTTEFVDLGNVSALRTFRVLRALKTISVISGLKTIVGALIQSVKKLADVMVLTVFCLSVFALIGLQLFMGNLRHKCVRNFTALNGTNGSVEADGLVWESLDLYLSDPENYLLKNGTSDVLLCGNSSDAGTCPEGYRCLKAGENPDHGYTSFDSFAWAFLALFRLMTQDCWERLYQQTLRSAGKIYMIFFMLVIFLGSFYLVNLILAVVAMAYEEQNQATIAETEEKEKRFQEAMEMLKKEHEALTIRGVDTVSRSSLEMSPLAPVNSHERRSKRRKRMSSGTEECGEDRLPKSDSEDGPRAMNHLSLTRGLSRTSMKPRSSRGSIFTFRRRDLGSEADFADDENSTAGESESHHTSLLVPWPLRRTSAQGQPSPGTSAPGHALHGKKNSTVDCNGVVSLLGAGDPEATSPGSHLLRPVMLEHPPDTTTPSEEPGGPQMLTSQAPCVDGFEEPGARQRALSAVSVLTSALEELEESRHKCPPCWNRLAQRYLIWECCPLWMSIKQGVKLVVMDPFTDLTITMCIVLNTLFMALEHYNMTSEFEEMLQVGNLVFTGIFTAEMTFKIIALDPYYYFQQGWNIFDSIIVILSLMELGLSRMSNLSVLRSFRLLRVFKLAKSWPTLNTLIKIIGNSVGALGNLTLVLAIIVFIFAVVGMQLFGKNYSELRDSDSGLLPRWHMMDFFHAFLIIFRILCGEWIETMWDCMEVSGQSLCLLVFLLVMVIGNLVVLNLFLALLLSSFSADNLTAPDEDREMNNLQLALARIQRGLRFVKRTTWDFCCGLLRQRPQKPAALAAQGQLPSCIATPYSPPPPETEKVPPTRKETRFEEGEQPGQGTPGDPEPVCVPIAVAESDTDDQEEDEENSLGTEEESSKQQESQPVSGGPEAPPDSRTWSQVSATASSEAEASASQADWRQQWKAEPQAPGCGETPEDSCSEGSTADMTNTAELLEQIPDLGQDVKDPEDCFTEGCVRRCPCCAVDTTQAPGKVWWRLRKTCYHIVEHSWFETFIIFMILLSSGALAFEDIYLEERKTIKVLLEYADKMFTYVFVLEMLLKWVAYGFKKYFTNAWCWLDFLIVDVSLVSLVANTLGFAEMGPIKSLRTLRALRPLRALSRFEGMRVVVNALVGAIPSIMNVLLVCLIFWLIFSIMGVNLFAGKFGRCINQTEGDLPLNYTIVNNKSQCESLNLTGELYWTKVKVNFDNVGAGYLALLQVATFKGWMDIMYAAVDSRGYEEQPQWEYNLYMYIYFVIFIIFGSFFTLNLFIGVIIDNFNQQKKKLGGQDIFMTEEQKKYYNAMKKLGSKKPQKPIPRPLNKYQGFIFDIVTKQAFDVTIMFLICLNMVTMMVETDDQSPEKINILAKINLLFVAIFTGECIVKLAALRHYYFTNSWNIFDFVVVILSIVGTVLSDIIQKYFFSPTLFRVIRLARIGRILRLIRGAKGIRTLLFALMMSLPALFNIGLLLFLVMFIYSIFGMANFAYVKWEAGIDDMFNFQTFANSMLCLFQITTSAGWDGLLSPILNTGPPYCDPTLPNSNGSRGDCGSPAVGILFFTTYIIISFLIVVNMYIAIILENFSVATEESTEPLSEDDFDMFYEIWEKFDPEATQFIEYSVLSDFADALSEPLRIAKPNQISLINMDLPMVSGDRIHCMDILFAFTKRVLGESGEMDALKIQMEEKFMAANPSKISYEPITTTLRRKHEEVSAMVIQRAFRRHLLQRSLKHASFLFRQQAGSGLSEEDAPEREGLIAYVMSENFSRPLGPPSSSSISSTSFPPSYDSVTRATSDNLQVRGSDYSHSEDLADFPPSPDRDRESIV

Structure (SMILES)	IC50 [1, 4]	IC50 ([2]; IWQ Use Nav1.5)	IC50 [3]	IC50 [2, 5]	IC50 [1]
CC[C@H](C)[C@@H]1NC(=O)[C@@H]2CSSC[C@@H]3NC(=O)[C@H](C(C)C)NC(=O)[C@H](CC(C)C)NC(=O)[C@H](CC(N)=O)NC(=O)[C@@H]4CCCN4C(=O)[C@H](CCCNC(=N)N)NC(=O)[C@H](CSSC[C@H](NC(=O)[C@@H](N)CC(=O)O)C(=O)N[C@@H](CC(C)C)C(=O)NCC(=O)N[C@@H](CCSC)C(=O)N[C@@H](CC(C)C)C(=O)N[C@@H](CCCNC(=N)N)C(=O)N[C@@H](CCCCN)C(=O)N2)NC(=O)[C@H](CSSC[C@@H](C(=O)N[C@@H](CCCCN)C(=O)N[C@@H](Cc2ccc(O)cc2)C(=O)N[C@H](C(=O)N[C@@H](Cc2ccccc2)C(N)=O)C(C)C)NC(=O)[C@H](Cc2c[nH]c4ccccc24)NC(=O)[C@H](CCCCN)NC(=O)[C@H](Cc2c[nH]cn2)NC(=O)[C@H]([C@@H](C)O)NC(=O)[C@H](CCCNC(=N)N)NC(=O)[C@H](CO)NC3=O)NC(=O)[C@H](CCCCN)NC(=O)[C@H](CC(=O)O)NC(=O)[C@H](CC(N)=O)NC(=O)[C@H](CC(=O)O)NC(=O)[C@@H]2CCCN2C1=O [compound 641] (H-DCLGMLRKCIPDNDKCCRPNLVCSRTHKWCKYVF-NH2; disulfide 2-17, 9-23, 16-30)	69 nM	> 5000 nM	240 nM	–	–
CC[C@H](C)[C@@H]1NC(=O)[C@@H]2CSSC[C@@H]3NC(=O)[C@H](C(C)C)NC(=O)[C@H](CC(C)C)NC(=O)[C@H](CC(N)=O)NC(=O)[C@@H]4CCCN4C(=O)[C@H](CCCNC(=N)N)NC(=O)[C@H](CSSC[C@H](NC(=O)[C@@H](N)CC(=O)O)C(=O)N[C@@H](CC(C)C)C(=O)NCC(=O)N[C@@H](Cc4cccnc4)C(=O)N[C@@H](CC(C)C)C(=O)N[C@@H](CCCNC(=N)N)C(=O)N[C@@H](CCCCN)C(=O)N2)NC(=O)[C@H](CSSC[C@@H](C(=O)N[C@@H](CCCCN)C(=O)N[C@@H](Cc2ccc(O)cc2)C(=O)N[C@H](C(=O)N[C@@H](Cc2ccccc2)C(N)=O)C(C)C)NC(=O)[C@H](Cc2c[nH]c4ccccc24)NC(=O)[C@H](CCCCN)NC(=O)[C@H](Cc2c[nH]cn2)NC(=O)[C@H]([C@@H](C)O)NC(=O)[C@H](CCCNC(=N)N)NC(=O)[C@H](CO)NC3=O)NC(=O)[C@H](CCCCN)NC(=O)[C@H](CC(=O)O)NC(=O)[C@H](CC(N)=O)NC(=O)[C@H](CC(=O)O)NC(=O)[C@@H]2CCCN2C1=O [compound 642]	1700 nM	–	3900 nM	> 5000 nM	–
CC[C@H](C)[C@@H]1NC(=O)[C@@H]2CSSC[C@@H]3NC(=O)[C@H](C(C)C)NC(=O)[C@H](CC(C)C)NC(=O)[C@H](CC(N)=O)NC(=O)[C@@H]4CCCN4C(=O)[C@H](CCCNC(=N)N)NC(=O)[C@H](CSSC[C@H](NC(=O)[C@@H](N)CC(=O)O)C(=O)N[C@@H](CC(C)C)C(=O)NCC(=O)N[C@@H](CO)C(=O)N[C@@H](CC(C)C)C(=O)N[C@@H](CCCNC(=N)N)C(=O)N[C@@H](CCCCN)C(=O)N2)NC(=O)[C@H](CSSC[C@@H](C(=O)N[C@@H](CCCCN)C(=O)N[C@@H](Cc2ccc(O)cc2)C(=O)N[C@H](C(=O)N[C@@H](Cc2ccccc2)C(N)=O)C(C)C)NC(=O)[C@H](Cc2c[nH]c4ccccc24)NC(=O)[C@H](CCCCN)NC(=O)[C@H](Cc2c[nH]cn2)NC(=O)[C@H]([C@@H](C)O)NC(=O)[C@H](CCCNC(=N)N)NC(=O)[C@H](CO)NC3=O)NC(=O)[C@H](CCCCN)NC(=O)[C@H](CC(=O)O)NC(=O)[C@H](CC(N)=O)NC(=O)[C@H](CC(=O)O)NC(=O)[C@@H]2CCCN2C1=O [compound 643] (H-DCLGSLRKCIPDNDKCCRPNLVCSRTHKWCKYVF-NH2; disulfide 2-17, 9-23, 16-30)	1300 nM	–	3200 nM	> 5000 nM	–
CC[C@H](C)[C@@H]1NC(=O)[C@@H]2CSSC[C@@H]3NC(=O)[C@H](C(C)C)NC(=O)[C@H](CC(C)C)NC(=O)[C@H](CC(N)=O)NC(=O)[C@@H]4CCCN4C(=O)[C@H](CCCNC(=N)N)NC(=O)[C@H](CSSC[C@H](NC(=O)[C@@H](N)CC(=O)O)C(=O)N[C@@H](CC(C)C)C(=O)NCC(=O)N[C@@H](C(C)C)C(=O)N[C@@H](CC(C)C)C(=O)N[C@@H](CCCNC(=N)N)C(=O)N[C@@H](CCCCN)C(=O)N2)NC(=O)[C@H](CSSC[C@@H](C(=O)N[C@@H](CCCCN)C(=O)N[C@@H](Cc2ccc(O)cc2)C(=O)N[C@H](C(=O)N[C@@H](Cc2ccccc2)C(N)=O)C(C)C)NC(=O)[C@H](Cc2c[nH]c4ccccc24)NC(=O)[C@H](CCCCN)NC(=O)[C@H](Cc2c[nH]cn2)NC(=O)[C@H]([C@@H](C)O)NC(=O)[C@H](CCCNC(=N)N)NC(=O)[C@H](CO)NC3=O)NC(=O)[C@H](CCCCN)NC(=O)[C@H](CC(=O)O)NC(=O)[C@H](CC(N)=O)NC(=O)[C@H](CC(=O)O)NC(=O)[C@@H]2CCCN2C1=O [compound 644] (H-DCLGVLRKCIPDNDKCCRPNLVCSRTHKWCKYVF-NH2; disulfide 2-17, 9-23, 16-30)	150 nM	–	480 nM	> 5000 nM	–
CC[C@H](C)[C@@H]1NC(=O)[C@@H]2CSSC[C@@H]3NC(=O)[C@H](C(C)C)NC(=O)[C@H](CC(C)C)NC(=O)[C@H](CC(N)=O)NC(=O)[C@@H]4CCCN4C(=O)[C@H](CCCNC(=N)N)NC(=O)[C@H](CSSC[C@H](NC(=O)[C@@H](N)CC(=O)O)C(=O)N[C@@H](CC(C)C)C(=O)NCC(=O)N[C@@H](Cc4ccc(OC)c(OC)c4)C(=O)N[C@@H](CC(C)C)C(=O)N[C@@H](CCCNC(=N)N)C(=O)N[C@@H](CCCCN)C(=O)N2)NC(=O)[C@H](CSSC[C@@H](C(=O)N[C@@H](CCCCN)C(=O)N[C@@H](Cc2ccc(O)cc2)C(=O)N[C@H](C(=O)N[C@@H](Cc2ccccc2)C(N)=O)C(C)C)NC(=O)[C@H](Cc2c[nH]c4ccccc24)NC(=O)[C@H](CCCCN)NC(=O)[C@H](Cc2c[nH]cn2)NC(=O)[C@H]([C@@H](C)O)NC(=O)[C@H](CCCNC(=N)N)NC(=O)[C@H](CO)NC3=O)NC(=O)[C@H](CCCCN)NC(=O)[C@H](CC(=O)O)NC(=O)[C@H](CC(N)=O)NC(=O)[C@H](CC(=O)O)NC(=O)[C@@H]2CCCN2C1=O [compound 645]	2400 nM	–	2600 nM	> 5000 nM	–
CC[C@H](C)[C@@H]1NC(=O)[C@@H]2CSSC[C@@H]3NC(=O)[C@H](C(C)C)NC(=O)[C@H](CC(C)C)NC(=O)[C@H](CC(N)=O)NC(=O)[C@@H]4CCCN4C(=O)[C@H](CCCNC(=N)N)NC(=O)[C@H](CSSC[C@H](NC(=O)[C@@H](N)CC(=O)O)C(=O)N[C@@H](CC(C)C)C(=O)NCC(=O)N(C)CC(=O)N[C@@H](CC(C)C)C(=O)N[C@@H](CCCNC(=N)N)C(=O)N[C@@H](CCCCN)C(=O)N2)NC(=O)[C@H](CSSC[C@@H](C(=O)N[C@@H](CCCCN)C(=O)N[C@@H](Cc2ccc(O)cc2)C(=O)N[C@H](C(=O)N[C@@H](Cc2ccccc2)C(N)=O)C(C)C)NC(=O)[C@H](Cc2c[nH]c4ccccc24)NC(=O)[C@H](CCCCN)NC(=O)[C@H](Cc2c[nH]cn2)NC(=O)[C@H]([C@@H](C)O)NC(=O)[C@H](CCCNC(=N)N)NC(=O)[C@H](CO)NC3=O)NC(=O)[C@H](CCCCN)NC(=O)[C@H](CC(=O)O)NC(=O)[C@H](CC(N)=O)NC(=O)[C@H](CC(=O)O)NC(=O)[C@@H]2CCCN2C1=O [compound 646]	920 nM	–	1700 nM	> 5000 nM	–
CC[C@H](C)[C@@H]1NC(=O)[C@@H]2CSSC[C@@H]3NC(=O)[C@H](C(C)C)NC(=O)[C@H](CC(C)C)NC(=O)[C@H](CC(N)=O)NC(=O)[C@@H]4CCCN4C(=O)[C@H](CCCNC(=N)N)NC(=O)[C@H](CSSC[C@H](NC(=O)[C@@H](N)CC(=O)O)C(=O)N[C@@H](CC(C)C)C(=O)NCC(=O)N[C@H](C)C(=O)N[C@@H](CCSC)C(=O)N[C@@H](CCCNC(=N)N)C(=O)N[C@@H](CCCCN)C(=O)N2)NC(=O)[C@H](CSSC[C@@H](C(=O)N[C@@H](CCCCN)C(=O)N[C@@H](Cc2ccc(O)cc2)C(=O)N[C@H](C(=O)N[C@@H](Cc2ccccc2)C(N)=O)C(C)C)NC(=O)[C@H](Cc2c[nH]c4ccccc24)NC(=O)[C@H](CCCCN)NC(=O)[C@H](Cc2c[nH]cn2)NC(=O)[C@H]([C@@H](C)O)NC(=O)[C@H](CCCNC(=N)N)NC(=O)[C@H](CO)NC3=O)NC(=O)[C@H](CCCCN)NC(=O)[C@H](CC(=O)O)NC(=O)[C@H](CC(N)=O)NC(=O)[C@H](CC(=O)O)NC(=O)[C@@H]2CCCN2C1=O [compound 647]	–	–	> 5000 nM	> 5000 nM	4500 nM
CC[C@H](C)[C@@H]1NC(=O)[C@@H]2CSSC[C@@H]3NC(=O)[C@H](C(C)C)NC(=O)[C@H](CC(C)C)NC(=O)[C@H](CC(N)=O)NC(=O)[C@@H]4CCCN4C(=O)[C@H](CCCNC(=N)N)NC(=O)[C@H](CSSC[C@H](NC(=O)[C@@H](N)CC(=O)O)C(=O)N[C@@H](CC(C)C)C(=O)NCC(=O)NCCC(=O)N[C@@H](CCSC)C(=O)N[C@@H](CCCNC(=N)N)C(=O)N[C@@H](CCCCN)C(=O)N2)NC(=O)[C@H](CSSC[C@@H](C(=O)N[C@@H](CCCCN)C(=O)N[C@@H](Cc2ccc(O)cc2)C(=O)N[C@H](C(=O)N[C@@H](Cc2ccccc2)C(N)=O)C(C)C)NC(=O)[C@H](Cc2c[nH]c4ccccc24)NC(=O)[C@H](CCCCN)NC(=O)[C@H](Cc2c[nH]cn2)NC(=O)[C@H]([C@@H](C)O)NC(=O)[C@H](CCCNC(=N)N)NC(=O)[C@H](CO)NC3=O)NC(=O)[C@H](CCCCN)NC(=O)[C@H](CC(=O)O)NC(=O)[C@H](CC(N)=O)NC(=O)[C@H](CC(=O)O)NC(=O)[C@@H]2CCCN2C1=O [compound 648]	4700 nM	–	> 5000 nM	> 5000 nM	–
